Results published in patent publication US9630894B2, “Energy efficient method and apparatus for the extraction of biomolecules from dilute aqueous solution” (DYNASEP INC., priority 2012, dated 2017).
“Also recorded” adds a separate entry of the source.

Test system: fermentation cultures
Assay: DME toxicity study: cell growth by absorption at 600 nm (A600)
Type: cell-based
Protocol: Toxicity studies were performed to determine the effects of DME on fermentation cultures. Cell growth, viability and solvent production were measured to determine what effect DME has on fermentation cultures. Cell growth was monitored by absorption measurements taken at 600 nm (A600). Viability was measured by counting the colony forming units (CFU) after 24 hours. Solvent production was quantified by HPLC.
The first round of testing was performed using media that had been sparged with DME gas at 23° C. The amount of DME absorbed into the media was measured by weight gain after sparging. […] Two control cultures were also used for direct comparison of cultures with and without the presence of DME.
A second round of testing was performed at lower DME concentrations. […] Based on the solvent measurements in Table 8 and Table 9 solvent production was also unaffected by DME at 0.7 wt. %. […] This is apparent after examination of the cell density and solvent production for samples 1-5, 2-1, 2-4 and 2-5 in comparison to the control samples 1-B and 2-B.

COC [DME, dimethyl ether]
effect on growth and solvent production (DME above 2.5 wt. % (2.5 to 3 wt. %)): substantial decrease; also recorded: more substantially inhibited; also recorded: severely inhibit
effect on growth and solvent production (DME approximately 1.6 wt. %): some inhibition; also recorded: partially inhibit
effect on cell growth and solvent production (DME below 0.7 wt. %): did not appear to inhibit growth; also recorded: do not have a noticeable effect; also recorded: have no observable effect; also recorded: no noticeable effect
A600 (culture 1-1, […] DME, 4 hours): 0.184
A600 (culture 1-1, […] DME, 7 hours): 0.241
A600 (culture 1-1, […] DME, 28 hours): 0.137
A600 (culture 1-1, […] DME, 196 hours): 0.075
A600 (culture 1-2, 3.48% DME, 4 hours): 0.205
A600 (culture 1-2, 3.48% DME, 7 hours): 0.194
A600 (culture 1-2, 3.48% DME, 28 hours): 0.175
A600 (culture 1-2, 3.48% DME, 196 hours): 0.39
A600 values (culture 1-2, DME 18.1 g/L, 3 hours): 0.523
A600 values (culture 1-2, DME 18.1 g/L, 24 hours): 2.565
A600 values (culture 1-2, DME 18.1 g/L, 40 hours): 1.82
A600 values (culture 1-2, DME 18.1 g/L, 64 hours): 1.97
A600 values (culture 1-3, DME 19.4 g/L, 3 hours): 0.463
A600 values (culture 1-3, DME 19.4 g/L, 24 hours): 2.695
A600 values (culture 1-3, DME 19.4 g/L, 40 hours): 2.16
A600 values (culture 1-3, DME 19.4 g/L, 64 hours): 2.15
A600 (culture 1-3, […] DME, 4 hours): 0.340
A600 (culture 1-3, […] DME, 7 hours): 0.690
A600 (culture 1-3, […] DME, 22 hours): 1.745
A600 (culture 1-3, […] DME, 28 hours): 1.69
A600 (culture 1-3, […] DME, 196 hours): 1.08
A600 values (culture 1-4*, DME 43.8 g/L, 3 hours): 0.807
A600 values (culture 1-4*, DME 43.8 g/L, 24 hours): 3.005
A600 values (culture 1-4*, DME 43.8 g/L, 40 hours): 1.95
A600 values (culture 1-4*, DME 43.8 g/L, 64 hours): 2.14
A600 values (culture 1-5, DME 25.8 g/L, 3 hours): 0.543
A600 values (culture 1-5, DME 25.8 g/L, 24 hours): 1.415
A600 values (culture 1-5, DME 25.8 g/L, 40 hours): 1.28
A600 values (culture 1-5, DME 25.8 g/L, 64 hours): 1.26
A600 values (culture 2-1, DME 26.0 g/L, 3 hours): 0.505
A600 values (culture 2-1, DME 26.0 g/L, 24 hours): 1.390
A600 values (culture 2-1, DME 26.0 g/L, 40 hours): 2.48
A600 values (culture 2-1, DME 26.0 g/L, 64 hours): 2.24
A600 (culture 2-1, weight % DME printed as ?, 4 hours): 0.140
A600 (culture 2-1, weight % DME printed as ?, 7 hours): 0.157
A600 (culture 2-1, weight % DME printed as ?, 28 hours): 0.072
A600 (culture 2-1, weight % DME printed as ?, 196 hours): 0.05
A600 (culture 2-2, 3.92% DME, 4 hours): 0.173
A600 (culture 2-2, 3.92% DME, 7 hours): 0.178
A600 (culture 2-2, 3.92% DME, 28 hours): 0.127
A600 (culture 2-2, 3.92% DME, 196 hours): 0.32
A600 values (culture 2-2, DME 6.8 g/L, 3 hours): 0.776
A600 values (culture 2-2, DME 6.8 g/L, 24 hours): 3.755
A600 values (culture 2-2, DME 6.8 g/L, 40 hours): 1.29
A600 values (culture 2-2, DME 6.8 g/L, 64 hours): 1.36
A600 (culture 2-3, 3.72% DME, 4 hours): 0.230
A600 (culture 2-3, 3.72% DME, 7 hours): 0.159
A600 (culture 2-3, 3.72% DME, 28 hours): 0.077
A600 (culture 2-3, 3.72% DME, 196 hours): 0.06
A600 values (culture 2-3, DME 6.6 g/L, 3 hours): 0.783
A600 values (culture 2-3, DME 6.6 g/L, 24 hours): 3.700
A600 values (culture 2-3, DME 6.6 g/L, 40 hours): 2.65
A600 values (culture 2-3, DME 6.6 g/L, 64 hours): 2.63
A600 values (culture 2-4, DME 29.1 g/L, 3 hours): 0.590
A600 values (culture 2-4, DME 29.1 g/L, 24 hours): 1.195
A600 values (culture 2-4, DME 29.1 g/L, 40 hours): 2.63
A600 values (culture 2-4, DME 29.1 g/L, 64 hours): 2.19
A600 values (culture 2-5, DME 27.9 g/L, 3 hours): 0.885
A600 values (culture 2-5, DME 27.9 g/L, 24 hours): 1.735
A600 values (culture 2-5, DME 27.9 g/L, 40 hours): 1.18
A600 values (culture 2-5, DME 27.9 g/L, 64 hours): 1.19
effect on cell growth (media containing 3 to 4 wt. % DME): substantial reduction in cell growth
